Test [1] is described as follows: viability of HCT116 lacking mutant beta-catenin – cell-based, human colon tumor, dose response (AID 1045).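 Further: HCT116 colon tumor cells with beta catenin knocked out; cells exposed to compound for 60 hours.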 The class given is functional.
Test [2] in a line: viability of PTEN-deleted HCT116 cells – cell-based, HCT116 PTEN knockout, dose response (AID 1047).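 Further: HCT116 colon tumor cells with PTEN knocked out; cells exposed to compound for 60 hours before readout; potency for loss of cell viability measured by luminescence.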 Type of test: functional.
Test [3] has as its system INS1. Put plainly: INS-1E survival protection against cytokine death – cell-based, luminescence, retest, dose response (AID 449756).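 Further: cell death triggered by IL-1 beta plus TNF-alpha plus IFN-gamma mixture; protective hits raise ATP signal compared with cytokine alone wells.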 The class given is functional. Particulars: Rattus norvegicus.
The subject of test [4] is H9c2. Put plainly: cells. The class given is functional, cell-based. Particulars: Rattus norvegicus, H9c2, Myocardium.
A short description of test [5]: luciferase reporter signal suppression in cells – H4 neuroglioma cells, luminescence, dose response (AID 1990). Type of test: functional, cell-based. (In general: Reporter assays use an easily measured gene product as a stand-in for the process of interest.)
Test [6] in a line: Luminescence Cell-Based Dose Response HTS to Identify Inhibitors of 5'UTR Stem-Loop Driven Prion Protein mRNA Translation in H4 Neuroglioblastoma Cells. [Related pubchem assays: 1827 (Project Summary), 1813 (Primary HTS)]. Type of test: functional.
A short description of test [7]: alpha-synuclein stem-loop luciferase translation blockers – H4 neuroglioma cells, luminescence, confirmation (AID 1988). The class given is functional, cell-based.
The target of test [8] is T1, Protein skinhead-1 (Caenorhabditis elegans, UniProt P34707).
T1 sequence (P34707 whole entry): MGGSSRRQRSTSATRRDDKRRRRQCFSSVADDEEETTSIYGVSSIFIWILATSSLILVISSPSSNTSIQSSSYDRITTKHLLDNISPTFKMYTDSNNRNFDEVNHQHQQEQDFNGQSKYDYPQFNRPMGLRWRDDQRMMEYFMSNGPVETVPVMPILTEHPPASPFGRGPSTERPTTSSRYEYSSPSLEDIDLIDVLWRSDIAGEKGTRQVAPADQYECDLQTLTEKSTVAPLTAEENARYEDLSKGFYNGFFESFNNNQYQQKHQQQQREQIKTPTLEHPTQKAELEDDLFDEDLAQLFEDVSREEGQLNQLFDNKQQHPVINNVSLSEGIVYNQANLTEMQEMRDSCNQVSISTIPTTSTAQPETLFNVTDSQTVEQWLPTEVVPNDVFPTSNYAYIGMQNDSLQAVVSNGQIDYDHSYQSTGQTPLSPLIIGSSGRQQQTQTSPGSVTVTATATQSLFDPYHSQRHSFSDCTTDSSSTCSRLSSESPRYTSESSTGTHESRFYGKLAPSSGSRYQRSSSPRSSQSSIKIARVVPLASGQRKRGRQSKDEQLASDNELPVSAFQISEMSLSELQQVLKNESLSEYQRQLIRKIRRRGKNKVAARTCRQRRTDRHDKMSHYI
Type of test: functional.

Test [9] has as its target Heat shock protein HSP 90-alpha (Homo sapiens, UniProt P07900). The class given is functional, organism-based.
A short description of test [10]: Luminescence Cell-Based Dose Retest to Confirm Inhibitors of Cancer Stem Cells. [Related pubchem assays (depositor defined):AID2717, AID2721]. Type of test: functional. Particulars: Homo sapiens.
In test [11] the target is T2, Heat shock factor protein 1 (Mus musculus, UniProt P38532).
T2 sequence (P38532 whole entry): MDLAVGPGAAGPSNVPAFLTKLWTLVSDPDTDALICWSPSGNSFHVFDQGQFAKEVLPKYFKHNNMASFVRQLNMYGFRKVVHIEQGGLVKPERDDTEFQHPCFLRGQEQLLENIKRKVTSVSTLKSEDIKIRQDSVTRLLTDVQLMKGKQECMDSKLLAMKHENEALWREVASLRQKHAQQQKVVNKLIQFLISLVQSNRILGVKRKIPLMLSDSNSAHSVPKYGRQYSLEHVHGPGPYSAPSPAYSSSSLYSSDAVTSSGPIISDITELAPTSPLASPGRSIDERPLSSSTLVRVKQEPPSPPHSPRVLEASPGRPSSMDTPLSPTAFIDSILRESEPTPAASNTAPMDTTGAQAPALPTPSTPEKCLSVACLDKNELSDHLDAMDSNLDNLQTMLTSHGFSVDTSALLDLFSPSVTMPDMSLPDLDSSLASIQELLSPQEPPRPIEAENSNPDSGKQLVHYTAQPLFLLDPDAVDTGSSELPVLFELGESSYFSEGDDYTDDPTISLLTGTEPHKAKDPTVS
Description: enhancement of HSF1-driven luciferase signal – cell-based, NIH3T3, luminescence, dose retest, confirmation (AID 435004).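 Further: stress induced by proteasome inhibitor MG132 added 30 min after compound; luciferase reporter driven by HSF1 response element in NIH3T3 cells; actives raise luminescence as potentiators of the MG132 stress response.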 The class given is functional.

In test [12] the target is FAD-linked sulfhydryl oxidase ALR (Homo sapiens, UniProt P55789). Put plainly: ALR-catalysed DTT oxidation blockers – biochemical, H2O2 detection, luminescence, cherry-pick, dose response (AID 493248).
FAD-linked sulfhydryl oxidase ALR, sequence (P55789 whole entry): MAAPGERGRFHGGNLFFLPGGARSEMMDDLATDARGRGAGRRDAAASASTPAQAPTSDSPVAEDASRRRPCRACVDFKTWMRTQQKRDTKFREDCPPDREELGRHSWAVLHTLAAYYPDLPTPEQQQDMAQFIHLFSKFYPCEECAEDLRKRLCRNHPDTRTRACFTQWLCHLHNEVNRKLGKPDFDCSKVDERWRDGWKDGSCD
A short description of test [13]: NIH3T3 cell viability loss – ATP luminescence, mouse fibroblasts, counter-screen, dose response (AID 2010).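 Further: cells exposed to compound for about 90 hours before reading.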 Type of test: functional, cell-based. In general terms: Counterscreens check selectivity or assay interference.
The nature of test [14]: Trypanosoma cruzi growth suppression in host cells – NIH3T3 host cells, beta-gal luminescence, confirmation (AID 2044).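 Further: intracellular parasites grown in NIH/3T3 mouse fibroblasts as host cells; luminescent beta-galactosidase reporter signal from transgenic T. cruzi replicating inside host cells; inhibitors lower the luminescence signal.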 Type of test: functional, cell-based.
Test [15] in a line: viability of uninfected HEp-2 cells – cell-based, HTS, cytotoxicity control for RSV inhibitor project, dose response (AID 2410). Type of test: functional. The conditions noted are these: human respiratory syncytial virus.
Test [16] deals with T3, Calpain-2 catalytic subunit (Sus scrofa, UniProt P43367).
T3 sequence (P43367 whole entry): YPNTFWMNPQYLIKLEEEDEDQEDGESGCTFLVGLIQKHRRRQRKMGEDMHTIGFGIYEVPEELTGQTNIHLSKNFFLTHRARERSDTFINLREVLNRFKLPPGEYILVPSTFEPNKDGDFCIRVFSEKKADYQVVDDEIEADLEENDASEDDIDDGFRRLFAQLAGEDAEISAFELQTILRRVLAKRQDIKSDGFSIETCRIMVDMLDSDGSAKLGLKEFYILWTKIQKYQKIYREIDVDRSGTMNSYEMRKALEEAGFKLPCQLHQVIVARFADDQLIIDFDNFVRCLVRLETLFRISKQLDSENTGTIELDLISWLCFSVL
Put plainly: m-calpain protease blockers, concentration series – biochemical, fluorogenic peptide substrate, dose response (AID 1420). Type of test: functional.

A short description of test [17]: non-specific 3'UTR reporter inhibition in Clone20-Shn3RL – cell-based, Renilla luciferase, cherry-picked, counter-screen for Shn3 inhibitor project, dose response (AID 624133). Type of test: functional.
For test [18], the target named is Cytochrome P450 2C19 (Homo sapiens, UniProt P33261). Put plainly: Cytochrome panel assay with activity outcomes. Panel member name: p450-cyp2c19 Compounds with AC50 equal or less than 10 uM are considered active. Type of test: functional.
Cytochrome P450 2C19, sequence (P33261 whole entry): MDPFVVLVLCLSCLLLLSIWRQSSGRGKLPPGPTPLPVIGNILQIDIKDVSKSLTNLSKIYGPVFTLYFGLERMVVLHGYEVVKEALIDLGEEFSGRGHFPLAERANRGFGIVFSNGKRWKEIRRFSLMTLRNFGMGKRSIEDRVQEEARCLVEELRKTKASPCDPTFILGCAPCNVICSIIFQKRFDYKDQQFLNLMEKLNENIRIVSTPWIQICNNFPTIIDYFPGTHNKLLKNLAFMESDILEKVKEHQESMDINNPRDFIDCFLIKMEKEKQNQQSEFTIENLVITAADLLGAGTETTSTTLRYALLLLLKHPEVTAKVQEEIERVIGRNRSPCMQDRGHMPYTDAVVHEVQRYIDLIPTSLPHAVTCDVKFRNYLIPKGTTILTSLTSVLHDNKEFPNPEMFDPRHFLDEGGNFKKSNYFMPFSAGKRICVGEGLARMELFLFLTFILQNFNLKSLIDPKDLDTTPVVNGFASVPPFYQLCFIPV
The target of test [19] is Cytochrome P450 3A4 (Homo sapiens, UniProt P08684).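 Further: CYP3A4 tested as one member of a cytochrome P450 panel screen.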
Cytochrome P450 3A4, sequence (P08684 whole entry): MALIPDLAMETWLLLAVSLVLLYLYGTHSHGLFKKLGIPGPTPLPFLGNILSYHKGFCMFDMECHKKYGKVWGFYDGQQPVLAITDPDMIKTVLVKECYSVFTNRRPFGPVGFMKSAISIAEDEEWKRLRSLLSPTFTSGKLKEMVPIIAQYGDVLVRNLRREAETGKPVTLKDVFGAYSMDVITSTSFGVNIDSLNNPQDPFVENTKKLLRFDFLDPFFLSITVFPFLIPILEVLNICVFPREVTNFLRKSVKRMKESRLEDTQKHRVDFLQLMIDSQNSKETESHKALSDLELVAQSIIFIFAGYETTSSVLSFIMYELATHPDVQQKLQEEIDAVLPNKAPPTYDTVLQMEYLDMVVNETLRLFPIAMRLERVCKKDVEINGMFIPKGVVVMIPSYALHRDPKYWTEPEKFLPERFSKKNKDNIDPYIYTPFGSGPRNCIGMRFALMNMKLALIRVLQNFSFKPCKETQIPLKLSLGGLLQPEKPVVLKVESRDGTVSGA

Activity calls are given as the source filed them.

This note sets out measurements from ChEMBL document CHEMBL1201862, “PubChem BioAssay data set” (2004).

In general, EC50 refers to the concentration at which the effect is half-maximal. As a reminder, the AC50 is the concentration at which the activity in the assay is half-maximal. One may read the IC50 as the point on the concentration scale where inhibition reaches its midpoint. For orientation: CC50 means the concentration giving 50% cytotoxicity.

Turning to `O=C1/C(=C/c2cccnc2)CCC/C1=C\c1cccnc1`, the figures for the EC50 in test [1] and in test [2] were 1.09 µM (active) and 1.43 µM (active), respectively. Moreover, in test [3], the AC50 is 3.04 µM (active).
For `Cn1c(-c2ccc(Cl)cc2)cnc1N`, the IC50 in test [4] was > 79 µM (inactive).
Take `COc1ccc(-c2csc(/C(C#N)=C/Nc3cc4oc5ccccc5c4cc3OC)n2)cc1`: the EC50 is > 120 µM (not active) in [5], 91.7 µM (active) in test [6] and > 120 µM (not active) in [7].
Take `CN(CCCN1CCOCC1)C(=O)c1cc(COc2cccc(C(F)(F)F)c2)on1`: the IC50 in [8] was > 100 µM (inactive).
As for `Cc1cccc(Nc2nc(N)c([N+](=O)[O-])c(N3CC(C)CC(C)C3)n2)c1` (stereo unspecified), the results for the AC50 in test [9], in test [3] and in test [10] were 7.38 µM (active), 8.89 µM (active) and 6.36 µM (active), respectively. Further, the EC50 in test [1] was 15.1 µM (active); in test [2], 13.1 µM (active).
As to `COc1cccc(C2C([N+](=O)[O-])=C(N)Oc3c2c(=O)oc2ccccc32)c1` (stereo unspecified), the EC50 in [11] was > 260 µM (inactive).
`O=C(CN1CCCC1)Nc1sc2c(c1C(=O)Nc1ccc(Br)cc1)CCC2`: the IC50 in [8] was > 100 µM (inactive).
Regarding `CC(=O)Nc1ccc(S(=O)(=O)NCc2ccc3c(c2)cc(C)n3C)cc1`, the IC50 in test [8] is > 100 µM (inactive).
As for `Cc1cccc(-[n+]2c(-c3cccc(Br)c3)[nH]c3nc4ccccc4nc32)c1`, the EC50 is 13.2 µM (active) in test [5], 13.7 µM (active) in test [6] and 10.5 µM (active) in test [7].
For `Cc1ccc(NC2c3ncccc3C(=O)N2C2CCCCC2)cc1` (stereo unspecified), the EC50 in test [11] is > 260 µM (inactive). Also, the AC50 in test [12] was 2.07 µM (active).
Consider `CCOC(=O)c1c(COc2ccccc2)oc2ccc(O)cc12`, for which the EC50 in test [11] is > 260 µM (inactive).
Take `CC(OC(=O)Cn1[nH]c(=O)c2ccccc2c1=O)C(=O)Nc1ccc(F)cc1Cl` (stereo unspecified): the IC50 in test [4] is > 79 µM (inactive).
Take `Cc1cc(S(=O)(=O)NCc2ccccc2)ccc1OCC(=O)Nc1cccc([N+](=O)[O-])c1`: the EC50 in [1] was 14.9 µM (active); in test [2], 13 µM (active).
Take `O=S(=O)(NC1CCCCCC1)c1ccc(Br)s1`: the AC50 in test [9] is 17.2 µM (active).
For `COc1ccc(-c2cc(=O)oc3cc(OCC(=O)N(C)C)ccc23)cc1`, the IC50 in [8] is > 100 µM (inactive).
Take `CCOc1cc(CNCCSc2nnnn2C)cc(Br)c1OCc1ccccc1F`: the IC50 in [8] is 24.1 µM (active). The EC50 was > 60 µM (not active) in [13] and 2.13 µM (active) in test [14].
With `Cc1ccc(CNC(=O)CSc2ccsc2[N+](=O)[O-])cc1`, in [11], the EC50 was 31.5 µM (active).
Regarding `Cc1ccc(C2=NC(C)(C)N=C2SCC(=O)Nc2ccc(Cl)cc2)cc1`, in [15], the CC50 was 30.5 µM (active). In test [9], the AC50 is 15.1 µM (active).
Turning to `COc1cccc(C(=O)Nc2cccc(-c3nnc(-c4ccco4)o3)c2)c1`, the IC50 in test [16] was > 50 µM (not active); in test [4] it was 28.2 µM (active).
On to `C=Cn1ccnc1P(=S)(c1ccc2c(c1)c1ccccc1n2CC)c1nccn1C=C`, for which the EC50 in test [1] was 4.28 µM (active); in [2], 4.12 µM (active). The AC50 in test [10] was 1.5 µM (active).
As for `Cc1ccc(C)c(Nc2nc3ccc(C)cc3n3cnnc23)c1`, the EC50 is 14.9 µM (active) in test [5], > 120 µM (not active) in test [6] and > 120 µM (not active) in [7].
Take `CN(CC(=O)NCc1ccc2c(c1)OCO2)S(=O)(=O)c1ccc(Br)s1`: the AC50 in test [17] was 28.2 µM (active).
For the compound `Cn1c(-n2c(CCCN3C(=O)c4ccccc4C3=O)nc3ccccc3c2=O)nc2ccccc21`, in test [4], the half-inhibitory concentration (IC50) is 15.3 µM (active).
In the case of `O=C(Nc1ccc2c(c1)CN(Cc1ccco1)CC2)C1CCCO1` (stereo unspecified), in test [8], the IC50 is > 100 µM (inactive).
As to `COc1ccc(C2=Nn3c(nnc3-c3ccccc3)SC2)cc1OC`, the EC50 in test [5] was 54.9 µM (active); in test [6], > 120 µM (not active); in [7], 0.318 µM (active).
Consider `COc1cccc(-c2noc(-c3ccoc3C)n2)c1`, for which, in [8], the IC50 is 86.4 µM (inactive).
In the case of `O=C(Nc1ccc(F)cc1)C1CCN(c2ncnc3c2nc2n3CCCCC2)CC1`, the EC50 is 17 µM (active) in [5], 16.9 µM (active) in test [6] and 15.8 µM (active) in test [7].
`Cc1ccc2nc(NC(=O)/C=C/c3ccc4c(c3)OCO4)sc2c1`: the values for the EC50 in test [1] and in [2] were 4.66 µM (active) and 4.16 µM (active), respectively. For the same compound, the AC50 in [3] was 3.6 µM (active).
Turning to `CCOC(=O)N1CCN(C(=O)CSc2nc(O)c3cnn(-c4ccc(C)cc4)c3n2)CC1`, the IC50 in test [4] is 31.6 µM (inactive).
Consider `Nc1nnc(SCC(=O)N2CCN(c3cccc(Cl)c3)CC2)n1-c1ccccc1`, for which the IC50 in [8] was > 100 µM (inactive).
For `Cc1ccc(C)c(NC(=O)/C(C#N)=C/c2ccc[nH]2)c1`, in test [8], the IC50 is > 100 µM (inactive).
Turning to `O=C(CCc1nc(O)c2ccccc2n1)NNC(=O)c1cccc(Cl)c1`, the IC50 in test [4] was > 79 µM (inactive).
As for `C=CCn1c(COc2ccc(CC)cc2)nnc1SC/C(O)=C(\C#N)c1nc2ccccc2[nH]1`, the EC50 in test [11] is > 260 µM (inactive).
As to `Cc1nn(-c2ccccc2)c(N2CCCC2)c1/C=N/NC(=O)c1cc(-c2ccccn2)nc2ccccc12`, the IC50 in test [4] is > 79 µM (inactive).
As for `Clc1ccc(Cn2cc(/C=N/n3cnnc3)c3ccccc32)cc1`, the EC50 in test [5] was 14.6 µM (active); in test [6], > 120 µM (not active); in [7] it was 13.1 µM (active).
With `CC(=C/c1ccccc1)/C=N/n1cnnc1`, the results for the EC50 in test [5], in test [6] and in [7] were 11 µM (active), 20.4 µM (active) and 13.5 µM (active), respectively.
As to `O=C1/C(=C/c2ccccc2)CCCc2ccccc21`, in [8], the IC50 was 17.9 µM (active).
In the case of `Fc1ccc(CSc2ccc3nnc(-c4cccnc4)n3n2)cc1`, the IC50 in test [4] was > 79 µM (inactive).
With `COc1ccc(Cc2nnc(O)c3ccccc23)cc1OC`, in [4], the IC50 was 7.28 µM (active). Besides, the half-maximal activity concentration (AC50) in test [18] was 31.6 µM (inconclusive); in [19] it was 22.4 µM (inconclusive).
